The supplement of paper PMC10307832

Experiments:
Assay in all cases: relative viability (nuclei count vs DMSO), 5 days (fraction); higher = more cells survive
[1] = compound: CC(C)C[C@H](NC(=O)[C@H](CCc1ccccc1)NC(=O)CN1CCOCC1)C(=O)N[C@@H](Cc1ccccc1)C(=O)N[C@@H](CC(C)C)C(=O)[C@@]1(C)CO1 [Carfilzomib] + CCNC(=O)c1noc(-c2cc(C(C)C)c(O)cc2O)c1-c1ccc(CN2CCOCC2)cc1 [Luminespib] (partner 0.01 µM)
Summary of the method: (§1)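 Nuclei were stained with Hoechst during a one-step fixation (final 0.05% Triton X-100, 1% formaldehyde, 1 ug/ml Hoechst) carried out 5 days after dosing, then counted on 4× images. The cells, lung cancer lines in 1536-well plates, had been dosed by pin tool the day after seeding with one drug alone or a fixed anchor-drug dose plus five library-drug doses (not always all listed) in √10 steps. Relative viability is the nuclei count in treated wells divided by that in vehicle wells, and each value is the median of duplicate plates.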

[2] = compound: CC(C)C[C@H](NC(=O)[C@H](CCc1ccccc1)NC(=O)CN1CCOCC1)C(=O)N[C@@H](Cc1ccccc1)C(=O)N[C@@H](CC(C)C)C(=O)[C@@]1(C)CO1 [Carfilzomib] + Cc1nc(NC(=O)N2CCC[C@H]2C(N)=O)sc1-c1ccnc(C(C)(C)C(F)(F)F)c1 [Alpelisib] (partner 2 µM)
Summary of the method: as §1

[3] = compound: CC(C)C[C@H](NC(=O)[C@H](CCc1ccccc1)NC(=O)CN1CCOCC1)C(=O)N[C@@H](Cc1ccccc1)C(=O)N[C@@H](CC(C)C)C(=O)[C@@]1(C)CO1 [Carfilzomib] + Nc1nc2[nH]cc(CCc3ccc(C(=O)N[C@@H](CCC(=O)O)C(=O)O)cc3)c2c(=O)[nH]1 [Pemetrexed] (partner 0.2 µM)
Summary of the method: as §1

[4] = compound: O=C(c1cc(Cc2n[nH]c(=O)c3ccccc23)ccc1F)N1CCN(C(=O)C2CC2)CC1 [Olaparib] + Nc1nc2[nH]cc(CCc3ccc(C(=O)N[C@@H](CCC(=O)O)C(=O)O)cc3)c2c(=O)[nH]1 [Pemetrexed] (partner 0.2 µM)
Summary of the method: as §1

Cell Line	relative viability ([1]; first compound 0.001 µM)	relative viability ([1]; first compound 0.003162 µM)	relative viability ([1]; first compound 0.01 µM)	relative viability ([1]; first compound 0.03162 µM)	relative viability ([1]; first compound 0.1 µM)	relative viability ([2]; first compound 0.001 µM)	relative viability ([2]; first compound 0.003162 µM)	relative viability ([2]; first compound 0.01 µM)	relative viability ([2]; first compound 0.03162 µM)	relative viability ([2]; first compound 0.1 µM)	relative viability ([3]; first compound 0.001 µM)	relative viability ([3]; first compound 0.003162 µM)	relative viability ([3]; first compound 0.01 µM)	relative viability ([3]; first compound 0.03162 µM)	relative viability ([3]; first compound 0.1 µM)	relative viability ([4]; first compound 0.08 µM)	relative viability ([4]; first compound 2.53 µM)	relative viability ([4]; first compound 8 µM)	relative viability ([4]; first compound 0.253 µM)
PC-3 [JPC-3]	0.754	0.706	0.742	0.646	0.331	1.07	1.08	1.02	0.824	0.257	1.04	1.1	1.23	0.642	0.294	1.1	1.26	1.05	–
PC-14	0.143	0.176	0.18	0.117	0.109	0.958	0.981	0.976	0.0805	0.0691	0.145	0.14	0.197	0.0596	0.0657	0.131	0.135	0.139	0.14
RERF-LC-KJ	1.24	1.29	1.32	0.609	0.224	0.847	0.873	0.842	0.645	0.227	0.444	0.51	0.489	0.368	0.248	0.527	0.481	0.449	0.477
SK-LU-1	0.238	0.223	0.211	0.154	0.13	1.05	1	0.712	0.182	0.143	0.946	1.03	0.978	0.258	0.182	1.12	0.866	0.635	0.865
SK-MES-1	0.854	0.902	0.759	0.544	0.172	0.867	1.04	0.992	0.782	0.162	1.02	1.1	1.14	0.786	0.177	0.982	0.853	0.768	0.91
SW 1573	0.317	0.23	0.368	0.0748	0.057	0.731	0.835	0.642	0.19	0.096	0.809	0.927	0.613	0.071	0.0521	0.903	0.779	0.597	0.899
UMC-11	1.01	1.01	1.02	0.846	0.268	1.01	0.976	0.947	1.03	0.152	0.803	0.928	0.881	0.652	0.251	0.806	0.691	0.537	0.683
